Data taken from US10328092B2, “Methods and compositions for treatment of drug addiction” (The Royal Institution for the Advancement of Learning / …, priority 2015, dated 2019).

Tests used:
mice = assay: Basal locomotion; type: in vivo, mouse
Procedure: To determine whether the low TNFα response induced by MPLA can affect the behavioural response to cocaine, it was first assessed if MPLA can alter the basal locomotion of mice. Mice were injected with 10 ug of MPLA, and tested 24 hrs later. No difference in basal locomotion was observed (n=4), compared with saline injected control mice (FIG. 2).
Locomotion was monitored in 30×30 cm plexiglass boxes by the EthoVision video-tracking system (Noldus) and performed near the end of the light phase of the light-dark cycle under dim red light. After habituating animals to handling, mice received IP injections of saline or cocaine and their activity was recorded for 15 min. […] Following 10 days without injections (withdrawal), mice receive a challenge dose of cocaine (15 mg/kg) and locomotor activity again assessed (day 17). Total distance traveled and stereotypy were evaluated from video by EthoVision. For stereotypy, the frequency of which the mouse stops moving (#pauses/min) was measured using a threshold start velocity of 2.00/second and a threshold stop velocity of 0 cm/s. The number of turns per minute (# turns/min) was measured by calculating the frequency for which the path of the mouse turns over a minimum distance of 3.00 cm. Velocity was assessed as the mean distance traveled (cm) over time (s).

D1-MSNs in the NAc core = assay: AMPA/NMDA ratio on D1-MSNs after in vivo treatment; parameters: species or system mouse
Procedure: Repeated non-contingent administration of cocaine results in lower AMPA/NMDA ratios of excitatory inputs onto the NAc specifically on the D1-MSN subtype (Kim et al., 2011; Pascoli et al., 2012). To test whether the decrease in AMPA/NMDA ratios after repeated drug administration is due to the increase in TNFα expression, the AMPA/NMDA ratio was evaluated on D1 and D2 MSNs in the NAc core following cocaine or saline administration in WT and TNFα^−/− mice. […] This is consistent with the exocytosis of AMPARs observed with direct stimulation of D1Rs on MSNs (Mangiavacchi and Wolf, 2004). […] To test the hypothesis that potentiated D1-MSNs are more sensitive to TNFα, TNFα mice were treated with a single injection of cocaine and the effect of a low level of TNFα (10 ng/ml) on AMPA/NMDA ratios was evaluated. […] This treatment had no effect on D2-MSNs (FIG. 9B). To test whether cocaine-induced TNFα signaling would occlude further TNFα synaptic depression, wildtype animals were treated with cocaine for 5 days, and then treated striatel slices ex-vivo with TNFα (100 ng/ml). The AMPA/NMDA ratio on D1-MSNs (already reduced compared to saline treated animals; FIG. 5E) was not further reduced by treatment with TNFα (FIG. 5G).
Because depotentiation of MSNs reduced cocaine-induced behavioural sensitization (Pascoli et al., 2012), it was tested whether re-activation of microglia would depress NAc synapses and suppress sensitization. To do this, monophosphoryl lipid A (MPLA), a detoxified variant of LPS, was used (Casella and Mitchell, 2008). MPLA acts as a weak TLR4 agonist that is at least 100-fold less pyrogenic than LPS (Cluff, 2010) and is used in humans as an adjuvant for several vaccine formulations. […] It was verified that MPLA activates microglia in the striatum, by injecting 10 μg MPLA IP after 10 days withdrawal from cocaine. […] This is consistent with previous observations that MPLA acts as a microglia modulator (Michaud et al., 2013). […] It was next tested if MPLA treatment would depress synaptic strength in the NAc core. After 10 days of withdrawal, animals were injected with MPLA and evaluated 24 hours later for AMPA/NMDA ratios on D1-MSNs.
240 μm thick coronal slices containing the nucleus accumbens were prepared from brains of 8-9 week-old mice (with fluorescent D1-MSNs). After a 1 h recovery period, slices were placed in a submersion-type recording chamber and perfused (1.5-2 ml/min) at 30° C. with a bicarbonate-buffered artificial CSF saturated with 95% O2/5% CO2 and containing (in mM): 119 NaCl, 2.5 KCl, 1 NaH2PO4, 1.3 MgCl2, 2.5 CaCl2, 26.2 NaHCO3, 11 glucose, and 0.05 picrotoxin. Whole-cell voltage-clamp recordings from medium spiny neurons in the nucleus accumbens core were obtained under visual control using infrared-differential interference contrast microscopy. Whole-cell electrodes (2-4 MΩ) were filled with internal solution containing the following (in mM): 120 CsMeSO3, 15 CsCl, 8 NaCl, 0.2 EGTA, 10 HEPES, 2 Mg-ATP, 0.3 Na-GTP, 10 tetraethylammonium, and 5 QX-314 [5-N-(2,6-dimethylphenylcarbamoylmethyl)triethylammonium bromide] (308-310 mOsm). pH was adjusted to 7.3 with CsOH. Cells with series resistance above 25 MΩ or a 20% change over time were excluded. Synaptic currents were evoked using stainless-steel bipolar stimulating electrodes placed 100-150 μm rostral to the recorded neurons. EPSCs were acquired with an Axopatch 200B (Molecular Devices), filtered at 2 kHz, and digitized at 10 kHz. Acquisition and analysis was performed using pCLAMP 10.2 (Molecular Devices). To calculate AMPA/NMDA ratios, evoked synaptic responses were collected at −70 mV to measure AMPAR-mediated EPSCs and at +40 mV to measure NMDAR-mediated EPSCs. Typically, 20 responses were averaged to generate an average response. The peak AMPA response was used to calculate the AMPAR component and the amplitude at 40 ms post the AMPAR peak response was used to calculate the slower NMDA component at +40 mV to calculate the AMPA/NMDA ratio.

Row | Molecule | basal locomotion, distance (mice; 24 hours after IP injection of 10 μg MPLA) [cm] | basal locomotion vs saline injected mice (mice; 24 hours after i.p. injection of 10 μg MPLA) | AMPA/NMDA ratio in D1-MSNs vs saline treated controls (D1-MSNs in the NAc core; MPLA 10 μg, 24 hours after injection, after 10 days withdrawal from cocaine) | mean AMPA/NMDA ratio, D1 (D1-MSNs in the NAc core; TNFα−/− mice, 1 day cocaine 15 mg/kg) | mean AMPA/NMDA ratio, D1 (D1-MSNs in the NAc core; TNFα−/− mice, 5 days cocaine 15 mg/kg) | mean AMPA/NMDA ratio, D1 (D1-MSNs in the NAc core; WT mice, 1 day cocaine 15 mg/kg) | mean AMPA/NMDA ratio, D1 (D1-MSNs in the NAc core; WT mice, 5 days cocaine 15 mg/kg)
1 | monophosphoryl lipid A [MPLA] | 5415±378 | No significant differences | significantly reduced |  |  |  | 
2 | COC(=O)[C@H]1[C@@H](OC(=O)c2ccccc2)C[C@@H]2CC[C@H]1N2C [cocaine] |  |  |  | 4.28±0.35 | 4.97±083 | 3.38±0.57 | 2.73±0.35
